Literature values, collected in article PMC7761982, “FDA-Approved Drugs with Potent In Vitro Antiviral Activity against Severe Acute Respiratory Syndrome Coronavirus 2” (Pharmaceuticals, 2020).

Test system: SARS-CoV-2
Details: in vitro; read-out: IC50 against SARS-CoV-2 (reported); cited from earlier work

CC(=O)Oc1ccccc1C(=O)Nc1ncc([N+](=O)[O-])s1 [Nitazoxanide]
IC50: 2120 nM
